Assay results as given in the kinase profiling compilation of Christmann-Franck et al. (2016).

Columns and labels:
Assay in all cases: radiometric filter-binding kinase assay
[1] = tested on: AKT2 (human), P31751 [S474D]
BRSK2 (human) = BRSK2 (human) (UniProt Q8IWQ3)
CAMKK2 (human) = CAMKK2 (human) (UniProt Q96RR4)
CLK2 (human) = CLK2 (human) (UniProt P49760)
CSK (human) = CSK (human) (UniProt P41240)
DAPK1 (human) = DAPK1 (human) (UniProt P53355)
EPHA4 (human) = EPHA4 (human) (UniProt P54764)
EPHB1 (human) = EPHB1 (human) (UniProt P54762)
EPHB1 (human), sequence (P54762 whole entry, looked up): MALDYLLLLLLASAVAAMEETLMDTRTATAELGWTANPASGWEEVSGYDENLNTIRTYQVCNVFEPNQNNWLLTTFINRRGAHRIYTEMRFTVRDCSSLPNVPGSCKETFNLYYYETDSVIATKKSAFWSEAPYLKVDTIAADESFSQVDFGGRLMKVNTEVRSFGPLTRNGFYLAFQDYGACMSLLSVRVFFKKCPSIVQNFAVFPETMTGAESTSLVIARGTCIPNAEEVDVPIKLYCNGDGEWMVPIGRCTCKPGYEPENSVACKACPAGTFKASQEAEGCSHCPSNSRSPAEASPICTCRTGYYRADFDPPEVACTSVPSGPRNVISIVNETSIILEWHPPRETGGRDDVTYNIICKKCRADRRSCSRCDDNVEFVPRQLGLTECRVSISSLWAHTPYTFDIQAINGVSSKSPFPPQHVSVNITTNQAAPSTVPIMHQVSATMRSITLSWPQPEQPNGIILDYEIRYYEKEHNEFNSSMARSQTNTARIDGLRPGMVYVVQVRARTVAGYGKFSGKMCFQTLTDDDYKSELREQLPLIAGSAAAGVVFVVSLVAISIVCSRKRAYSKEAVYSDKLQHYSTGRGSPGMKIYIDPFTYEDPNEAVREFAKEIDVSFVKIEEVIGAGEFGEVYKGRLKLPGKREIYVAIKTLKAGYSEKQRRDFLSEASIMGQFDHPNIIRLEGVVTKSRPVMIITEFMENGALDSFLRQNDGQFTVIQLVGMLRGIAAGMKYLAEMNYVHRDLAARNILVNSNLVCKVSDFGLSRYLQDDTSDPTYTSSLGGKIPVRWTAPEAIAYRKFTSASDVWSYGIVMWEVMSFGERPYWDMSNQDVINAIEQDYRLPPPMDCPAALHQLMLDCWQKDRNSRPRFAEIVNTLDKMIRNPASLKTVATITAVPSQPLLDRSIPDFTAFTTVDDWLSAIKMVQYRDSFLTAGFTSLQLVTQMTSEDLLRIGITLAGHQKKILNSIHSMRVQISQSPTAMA

EPHB3 (human) = EPHB3 (human) (UniProt P54753)
EPHB4 (human) = EPHB4 (human) (UniProt P54760)
GSK3B (human) = GSK3B (human) (UniProt P49841)
HIPK1 (human) = HIPK1 (human) (UniProt Q86Z02)
HIPK2 (human) = HIPK2 (human) (UniProt Q9H2X6)
HIPK3 (human) = HIPK3 (human) (UniProt Q9H422)
IGF1R (human) = IGF1R (human) (UniProt P08069)
IGF1R (human), sequence (P08069 whole entry, looked up): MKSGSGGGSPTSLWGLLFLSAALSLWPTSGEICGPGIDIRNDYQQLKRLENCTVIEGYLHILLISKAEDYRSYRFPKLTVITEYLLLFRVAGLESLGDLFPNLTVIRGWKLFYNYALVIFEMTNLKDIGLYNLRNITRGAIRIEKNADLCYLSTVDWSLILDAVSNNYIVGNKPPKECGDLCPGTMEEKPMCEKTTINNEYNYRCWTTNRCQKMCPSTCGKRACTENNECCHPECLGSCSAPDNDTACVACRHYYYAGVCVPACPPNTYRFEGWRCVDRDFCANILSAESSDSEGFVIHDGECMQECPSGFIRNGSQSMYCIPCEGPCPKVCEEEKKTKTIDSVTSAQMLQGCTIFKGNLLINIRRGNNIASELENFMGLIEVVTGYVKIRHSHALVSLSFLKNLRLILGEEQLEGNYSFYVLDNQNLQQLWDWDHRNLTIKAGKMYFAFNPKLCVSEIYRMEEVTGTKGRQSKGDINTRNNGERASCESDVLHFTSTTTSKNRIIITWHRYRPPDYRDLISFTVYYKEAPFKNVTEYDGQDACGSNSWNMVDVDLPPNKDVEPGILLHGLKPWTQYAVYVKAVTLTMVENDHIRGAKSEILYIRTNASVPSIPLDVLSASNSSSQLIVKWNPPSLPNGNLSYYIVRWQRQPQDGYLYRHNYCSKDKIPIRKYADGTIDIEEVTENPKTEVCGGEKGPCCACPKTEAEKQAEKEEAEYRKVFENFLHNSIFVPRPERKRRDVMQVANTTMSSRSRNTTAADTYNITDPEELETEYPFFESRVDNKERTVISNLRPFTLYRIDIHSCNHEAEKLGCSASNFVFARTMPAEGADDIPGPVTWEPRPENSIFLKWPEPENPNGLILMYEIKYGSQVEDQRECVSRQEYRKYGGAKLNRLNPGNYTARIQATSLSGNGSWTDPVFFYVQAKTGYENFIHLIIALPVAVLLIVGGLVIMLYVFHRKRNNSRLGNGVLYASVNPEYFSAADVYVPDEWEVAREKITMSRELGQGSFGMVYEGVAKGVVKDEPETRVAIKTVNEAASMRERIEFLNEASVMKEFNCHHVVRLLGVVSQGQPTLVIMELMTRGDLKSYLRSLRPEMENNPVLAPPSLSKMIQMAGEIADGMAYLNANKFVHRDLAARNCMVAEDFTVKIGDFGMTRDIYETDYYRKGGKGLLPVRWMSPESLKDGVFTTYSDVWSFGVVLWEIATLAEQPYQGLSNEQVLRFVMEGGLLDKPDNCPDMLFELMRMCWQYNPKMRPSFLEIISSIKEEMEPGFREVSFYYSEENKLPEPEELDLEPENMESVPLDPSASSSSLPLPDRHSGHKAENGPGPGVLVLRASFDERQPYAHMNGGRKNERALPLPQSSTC

INSR (human) = INSR (human) (UniProt P06213)
LCK (mouse) = conditions: accession and sequence are those of the human protein
MAP3K1 (human) = MAP3K1 (human) (UniProt Q13233)
MAP3K1 (human), sequence (Q13233 whole entry, looked up): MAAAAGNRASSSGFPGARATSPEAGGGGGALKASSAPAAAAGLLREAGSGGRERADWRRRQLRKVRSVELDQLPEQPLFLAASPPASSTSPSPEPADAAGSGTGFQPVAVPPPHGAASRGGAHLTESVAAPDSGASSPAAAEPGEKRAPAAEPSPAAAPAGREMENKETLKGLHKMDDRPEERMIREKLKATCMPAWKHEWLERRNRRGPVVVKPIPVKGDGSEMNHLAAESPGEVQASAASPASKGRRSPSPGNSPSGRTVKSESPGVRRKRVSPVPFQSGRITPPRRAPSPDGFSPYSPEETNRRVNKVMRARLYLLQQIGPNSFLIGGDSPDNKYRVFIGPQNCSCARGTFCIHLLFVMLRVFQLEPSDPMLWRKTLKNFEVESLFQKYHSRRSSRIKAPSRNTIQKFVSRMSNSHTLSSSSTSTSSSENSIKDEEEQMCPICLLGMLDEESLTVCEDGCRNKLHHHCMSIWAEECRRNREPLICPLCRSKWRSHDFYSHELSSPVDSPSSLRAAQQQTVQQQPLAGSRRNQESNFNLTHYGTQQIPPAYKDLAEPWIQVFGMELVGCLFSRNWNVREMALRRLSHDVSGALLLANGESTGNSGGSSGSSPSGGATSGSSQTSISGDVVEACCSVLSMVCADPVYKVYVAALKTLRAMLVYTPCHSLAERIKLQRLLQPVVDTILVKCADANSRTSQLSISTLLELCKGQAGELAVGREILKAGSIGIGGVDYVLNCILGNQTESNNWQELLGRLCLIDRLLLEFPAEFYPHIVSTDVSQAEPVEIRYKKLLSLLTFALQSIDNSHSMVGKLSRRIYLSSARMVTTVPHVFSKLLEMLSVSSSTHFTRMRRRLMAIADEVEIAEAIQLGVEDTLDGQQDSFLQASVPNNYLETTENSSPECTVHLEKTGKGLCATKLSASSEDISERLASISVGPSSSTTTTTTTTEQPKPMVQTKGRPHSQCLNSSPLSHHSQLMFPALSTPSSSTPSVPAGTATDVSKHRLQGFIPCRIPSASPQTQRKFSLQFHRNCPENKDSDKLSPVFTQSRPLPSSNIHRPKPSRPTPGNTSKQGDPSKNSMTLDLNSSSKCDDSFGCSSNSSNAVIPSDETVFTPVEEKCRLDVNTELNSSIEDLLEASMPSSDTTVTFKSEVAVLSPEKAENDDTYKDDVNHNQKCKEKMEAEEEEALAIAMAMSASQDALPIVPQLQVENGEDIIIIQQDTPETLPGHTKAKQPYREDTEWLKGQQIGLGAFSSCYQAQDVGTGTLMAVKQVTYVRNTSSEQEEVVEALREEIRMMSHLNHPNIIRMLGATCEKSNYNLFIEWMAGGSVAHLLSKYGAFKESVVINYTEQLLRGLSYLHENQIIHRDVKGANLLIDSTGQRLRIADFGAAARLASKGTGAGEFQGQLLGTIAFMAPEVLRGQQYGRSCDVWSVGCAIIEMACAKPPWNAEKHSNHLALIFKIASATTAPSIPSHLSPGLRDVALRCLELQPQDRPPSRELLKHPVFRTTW

MAP3K5 (human) = MAP3K5 (human) (UniProt Q99683)
MAP3K7 TAB1 (human) = MAP3K7 TAB1 (human) (UniProt Q15750+O43318)
MAP3K9 (human) = MAP3K9 (human) (UniProt P80192)
MAPK1 (human) = MAPK1 (human) (UniProt P28482)
MAPK11 (human) = MAPK11 (human) (UniProt Q15759)
MAPK13 (human) = MAPK13 (human) (UniProt O15264)
MARK4 (human) = MARK4 (human) (UniProt Q96L34)
PAK6 (human) = PAK6 (human) (UniProt Q9NQU5)
PAK7 (human) = PAK7 (human) (UniProt Q9P286)
PKN2 (human) = PKN2 (human) (UniProt Q16513)
PLK1 (human) = PLK1 (human) (UniProt P53350)
PLK1 (human), sequence (P53350 whole entry, looked up): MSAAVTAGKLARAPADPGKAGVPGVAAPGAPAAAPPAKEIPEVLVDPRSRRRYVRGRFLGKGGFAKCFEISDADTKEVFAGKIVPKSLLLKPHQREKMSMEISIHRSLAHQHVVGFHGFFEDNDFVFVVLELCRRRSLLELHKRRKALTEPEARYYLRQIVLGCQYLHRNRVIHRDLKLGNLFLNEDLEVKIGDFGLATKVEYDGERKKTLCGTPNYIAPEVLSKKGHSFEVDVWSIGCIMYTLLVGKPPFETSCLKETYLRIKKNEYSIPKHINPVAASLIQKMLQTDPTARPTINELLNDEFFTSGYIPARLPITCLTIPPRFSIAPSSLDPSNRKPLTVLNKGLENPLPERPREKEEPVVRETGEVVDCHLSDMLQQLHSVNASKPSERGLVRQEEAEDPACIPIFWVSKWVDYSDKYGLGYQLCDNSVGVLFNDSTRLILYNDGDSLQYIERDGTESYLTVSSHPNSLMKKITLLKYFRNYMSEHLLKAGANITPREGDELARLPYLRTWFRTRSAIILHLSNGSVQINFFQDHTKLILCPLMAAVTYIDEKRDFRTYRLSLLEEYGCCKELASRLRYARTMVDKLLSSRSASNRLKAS

PRKAA1 or PRKAA2 (rat) = conditions: accession and sequence are those of the human protein
PRKCZ (human) = PRKCZ (human) (UniProt Q05513)
PRKCZ (human), sequence (Q05513 whole entry, looked up): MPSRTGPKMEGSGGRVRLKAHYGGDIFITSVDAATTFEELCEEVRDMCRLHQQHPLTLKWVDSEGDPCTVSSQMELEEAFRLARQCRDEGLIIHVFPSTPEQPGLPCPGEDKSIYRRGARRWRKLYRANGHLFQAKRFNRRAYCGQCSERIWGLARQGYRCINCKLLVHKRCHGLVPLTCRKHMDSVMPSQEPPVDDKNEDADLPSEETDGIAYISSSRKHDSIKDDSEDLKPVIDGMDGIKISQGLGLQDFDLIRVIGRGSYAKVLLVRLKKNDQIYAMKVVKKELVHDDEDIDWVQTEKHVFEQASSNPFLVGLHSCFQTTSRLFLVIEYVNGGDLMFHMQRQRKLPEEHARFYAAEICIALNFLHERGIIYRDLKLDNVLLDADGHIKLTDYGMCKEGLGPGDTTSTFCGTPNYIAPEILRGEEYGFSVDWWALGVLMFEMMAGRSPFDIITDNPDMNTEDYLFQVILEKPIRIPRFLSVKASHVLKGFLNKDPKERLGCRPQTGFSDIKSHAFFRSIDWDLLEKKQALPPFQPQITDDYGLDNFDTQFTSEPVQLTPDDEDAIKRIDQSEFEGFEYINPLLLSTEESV

ROCK2 (rat) = conditions: accession and sequence are those of the human protein
RPS6KA5 KD1 KD2 (human) = RPS6KA5 KD1 KD2 (human) (UniProt O75582)
SRC (human) = SRC (human) (UniProt P12931)
SYK (human) = SYK (human) (UniProt P43405)
YES1 (human) = YES1 (human) (UniProt P07947)

residual activity ([1]; compound 0.1 µM): 85% | residual activity ([1]; compound 1.0 µM): 90% | residual activity ([1]; compound 10.0 µM): 86% | residual activity (BRSK2 (human); compound 0.1 µM): 130% | residual activity (BRSK2 (human); compound 1.0 µM): 108% | residual activity (BRSK2 (human); compound 10.0 µM): 108% | residual activity (CAMKK2 (human); compound 0.1 µM): 97% | residual activity (CAMKK2 (human); compound 1.0 µM): 81% | residual activity (CAMKK2 (human); compound 10.0 µM): 90% | residual activity (CLK2 (human); compound 0.1 µM): 106% | residual activity (CLK2 (human); compound 1.0 µM): 104% | residual activity (CLK2 (human); compound 10.0 µM): 97% | residual activity (CSK (human); compound 0.1 µM): 104% | residual activity (CSK (human); compound 1.0 µM): 101% | residual activity (CSK (human); compound 10.0 µM): 98% | residual activity (DAPK1 (human); compound 0.1 µM): 109% | residual activity (DAPK1 (human); compound 1.0 µM): 101% | residual activity (DAPK1 (human); compound 10.0 µM): 103% | residual activity (EPHA4 (human); compound 0.1 µM): 100% | residual activity (EPHA4 (human); compound 1.0 µM): 101% | residual activity (EPHA4 (human); compound 10.0 µM): 96% | residual activity (EPHB1 (human); compound 0.1 µM): 126% | residual activity (EPHB1 (human); compound 1.0 µM): 108% | residual activity (EPHB1 (human); compound 10.0 µM): 115% | residual activity (EPHB3 (human); compound 0.1 µM): 104% | residual activity (EPHB3 (human); compound 1.0 µM): 100% | residual activity (EPHB3 (human); compound 10.0 µM): 86% | residual activity (EPHB4 (human); compound 0.1 µM): 122% | residual activity (EPHB4 (human); compound 1.0 µM): 101% | residual activity (EPHB4 (human); compound 10.0 µM): 123% | residual activity (GSK3B (human); compound 0.1 µM): 83% | residual activity (GSK3B (human); compound 1.0 µM): 88% | residual activity (GSK3B (human); compound 10.0 µM): 71% | residual activity (HIPK1 (human); compound 0.1 µM): 92% | residual activity (HIPK1 (human); compound 1.0 µM): 112% | residual activity (HIPK1 (human); compound 10.0 µM): 94% | residual activity (HIPK2 (human); compound 0.1 µM): 108% | residual activity (HIPK2 (human); compound 1.0 µM): 106% | residual activity (HIPK2 (human); compound 10.0 µM): 106% | residual activity (HIPK3 (human); compound 0.1 µM): 118% | residual activity (HIPK3 (human); compound 1.0 µM): 112% | residual activity (HIPK3 (human); compound 10.0 µM): 102% | residual activity (IGF1R (human); compound 0.1 µM): 87% | residual activity (IGF1R (human); compound 1.0 µM): 86% | residual activity (IGF1R (human); compound 10.0 µM): 93% | residual activity (INSR (human); compound 0.1 µM): 107% | residual activity (INSR (human); compound 10.0 µM): 99% | residual activity (LCK (mouse); compound 0.1 µM): 106% | residual activity (LCK (mouse); compound 1.0 µM): 92% | residual activity (LCK (mouse); compound 10.0 µM): 84% | residual activity (MAP3K1 (human); compound 0.1 µM): 93% | residual activity (MAP3K1 (human); compound 1.0 µM): 99% | residual activity (MAP3K1 (human); compound 10.0 µM): 89% | residual activity (MAP3K5 (human); compound 0.1 µM): 115% | residual activity (MAP3K5 (human); compound 1.0 µM): 99% | residual activity (MAP3K5 (human); compound 10.0 µM): 94% | residual activity (MAP3K7 TAB1 (human); compound 0.1 µM): 100% | residual activity (MAP3K7 TAB1 (human); compound 1.0 µM): 108% | residual activity (MAP3K7 TAB1 (human); compound 10.0 µM): 111% | residual activity (MAP3K9 (human); compound 0.1 µM): 105% | residual activity (MAP3K9 (human); compound 1.0 µM): 108% | residual activity (MAP3K9 (human); compound 10.0 µM): 100% | residual activity (MAPK1 (human); compound 0.1 µM): 98% | residual activity (MAPK1 (human); compound 1.0 µM): 90% | residual activity (MAPK1 (human); compound 10.0 µM): 100% | residual activity (MAPK11 (human); compound 0.1 µM): 99% | residual activity (MAPK11 (human); compound 1.0 µM): 106% | residual activity (MAPK11 (human); compound 10.0 µM): 95% | residual activity (MAPK13 (human); compound 0.1 µM): 90% | residual activity (MAPK13 (human); compound 1.0 µM): 99% | residual activity (MAPK13 (human); compound 10.0 µM): 90% | residual activity (MARK4 (human); compound 0.1 µM): 90% | residual activity (MARK4 (human); compound 1.0 µM): 89% | residual activity (MARK4 (human); compound 10.0 µM): 93% | residual activity (PAK6 (human); compound 0.1 µM): 105% | residual activity (PAK6 (human); compound 1.0 µM): 108% | residual activity (PAK6 (human); compound 10.0 µM): 103% | residual activity (PAK7 (human); compound 0.1 µM): 104% | residual activity (PAK7 (human); compound 1.0 µM): 100% | residual activity (PAK7 (human); compound 10.0 µM): 101% | residual activity (PKN2 (human); compound 0.1 µM): 78% | residual activity (PKN2 (human); compound 1.0 µM): 70% | residual activity (PKN2 (human); compound 10.0 µM): 58% | residual activity (PLK1 (human); compound 0.1 µM): 106% | residual activity (PLK1 (human); compound 1.0 µM): 94% | residual activity (PLK1 (human); compound 10.0 µM): 96% | residual activity (PRKAA1 or PRKAA2 (rat); compound 0.1 µM): 104% | residual activity (PRKAA1 or PRKAA2 (rat); compound 1.0 µM): 96% | residual activity (PRKAA1 or PRKAA2 (rat); compound 10.0 µM): 94% | residual activity (PRKCZ (human); compound 0.1 µM): 106% | residual activity (PRKCZ (human); compound 1.0 µM): 108% | residual activity (PRKCZ (human); compound 10.0 µM): 92% | residual activity (ROCK2 (rat); compound 0.1 µM): 110% | residual activity (ROCK2 (rat); compound 1.0 µM): 94% | residual activity (ROCK2 (rat); compound 10.0 µM): 116% | residual activity (RPS6KA5 KD1 KD2 (human); compound 0.1 µM): 110% | residual activity (RPS6KA5 KD1 KD2 (human); compound 1.0 µM): 104% | residual activity (RPS6KA5 KD1 KD2 (human); compound 10.0 µM): 95% | residual activity (SRC (human); compound 0.1 µM): 105% | residual activity (SRC (human); compound 1.0 µM): 100% | residual activity (SRC (human); compound 10.0 µM): 111% | residual activity (SYK (human); compound 0.1 µM): 134% | residual activity (SYK (human); compound 1.0 µM): 105% | residual activity (SYK (human); compound 10.0 µM): 92% | residual activity (YES1 (human); compound 0.1 µM): 123% | residual activity (YES1 (human); compound 1.0 µM): 100% | residual activity (YES1 (human); compound 10.0 µM): 109%
SMILES: CCCCCc1ccc(/C=C/[C@H](O)[C@@H](CO)NC)cc1
